According to US20230181602A1, “TREATMENT OF NON-ALCOHOLIC STEATOHEPATITIS (NASH)” (DURECT CORPORATION, priority 2020, published 2023):
Marks after values point to notes of the source that are not given here.

Key:
[1] = tested on: NASH patients with stage 1-3 fibrosis; assay: Phase 1b study in NASH patients, 4-week daily oral dosing: pharmacodynamic signals; type: in vivo, human; conditions: for Mean Non-HDL to Baseline / Mean TG to Baseline / Median Non-HDL to Baseline / Median TG to Baseline: day 28 after dosing
Description: (§1) A total of 63 patients completed the study with 21 patients per dose group (completion of MRI-PDFF measurement). 25HC3 S sodium was orally administered daily at 50 mg, 150 mg, or 600 mg (300 mg BID). […] Subjects provided written informed consent to participate in the study • 2. Males or females subjects 18 years or older, at the time of signing informed consent • 3. BMI 20-45 kg/m^2 • 4. […] Value of Fibroscan® ≥7 kPa • OR • b. MRE ≥2.75 kPa • *Clinical diagnosis of NASH was defined in this clinical trial as the existence of one or more of the following risk factors for NASH, namely: • a. Type 2 diabetes or elevated fasting blood sugar • b. Abdominal obesity • c. Elevated lipid levels, especially elevated levels of serum triglycerides • d. Hypertension, or • e. Low levels of HDL cholesterol • 5. For serum transaminases, ALT concentration for all patients at the time of screening was >1 and <5 times upper limit of normal (ULN) of the central lab in the absence of another cause of liver disease. If a patient had lab records in the past 6 months, ALT concentrations were <20 U/L female and <30 U/L male. AST concentration for all patients at the time of screening was <5× ULN • 6. […] Platelet counts ≥120,000/mm^3 • 8. Female subjects were eligible for the study if they met the following criteria: • Are not pregnant or nursing • Women of child-bearing potential (defined as females who are not surgically sterile or who are not over the age of 52 and amenorrheic for at least 12 months) must utilize appropriate birth control throughout the study duration. Acceptable methods that may be used are abstinence, birth control pills (“The Pill”) or patch, diaphragm, IUD (coil), vaginal ring, condom, surgical sterilization or progestin implant or injection, or sexual activity limited to a sterile (e.g., vasectomized) male partner • 9. Male participants agreed to consistently and correctly use a condom in combination with one of the above methods of birth control from enrollment to 30 days after the last dose of study medication • 10. Participants were able to comply with dosing and able to complete the study schedule of assessments

[2] = tested on: NASH patients with stage 1-3 fibrosis; assay: Phase 1b study in NASH patients: safety; type: in vivo, human; conditions: 4 weeks oral
Description: A total of 63 patients completed the study with 21 patients per dose group (completion of MRI-PDFF measurement). 25HC3 S sodium was orally administered daily at 50 mg, 150 mg, or 600 mg (300 mg BID). […] Subjects provided written informed consent to participate in the study • 2. Males or females subjects 18 years or older, at the time of signing informed consent • 3. BMI 20-45 kg/m^2 • 4. […] Value of Fibroscan® ≥7 kPa • OR • b. MRE ≥2.75 kPa • *Clinical diagnosis of NASH was defined in this clinical trial as the existence of one or more of the following risk factors for NASH, namely: • a. Type 2 diabetes or elevated fasting blood sugar • b. Abdominal obesity • c. Elevated lipid levels, especially elevated levels of serum triglycerides • d. Hypertension, or • e. Low levels of HDL cholesterol • 5. For serum transaminases, ALT concentration for all patients at the time of screening was >1 and <5 times upper limit of normal (ULN) of the central lab in the absence of another cause of liver disease. If a patient had lab records in the past 6 months, ALT concentrations were <20 U/L female and <30 U/L male. AST concentration for all patients at the time of screening was <5× ULN • 6. […] Platelet counts ≥120,000/mm^3 • 8. […]

[3] = Phase 1b study in NASH patients: pharmacokinetics; type: in vivo, human; conditions: for CL/F: NASH patients, mean
Description: as §1
The pharmacokinetics of administered 25HC3 S was determined.

[4] = Single dose safety and pharmacokinetic study in subjects with NASH and control healthy subjects; type: in vivo, human
Description: The present Example was a randomized, dose ranging, single dose safety and pharmacokinetic study of 25HC3S administered to subjects with NASH and control healthy subjects. […] For each cohort, 10 subjects with NASH were enrolled which were further classified into cirrhotic and non-cirrhotic. Each subject received only one dose of study treatment. The second cohort was dosed after a review of safety and tolerability data from Cohort 1.

[5] = Metabolite profiling of plasma, urine and feces after intravenous dose in rats; type: in vivo, Sprague Dawley rats; conditions: intravenous 10 mg/kg, up to 1 hour postdose
Description: Nine male Sprague Dawley rats (Group 1) were designated for the pharmacokinetic phase, 3 male Sprague Dawley rats (Group 2) for the excretion mass balance phase, and 7 male Sprague Dawley rats (Group 3) and 9 male Long Evans rats (Group 4) for the tissue distribution phase. All animals received a single intravenous dose of [^14C]-25HC3S at 10 mg/kg and a target radioactivity of 225 μCi/kg. Blood samples were collected from all Group 1 animals at approximately 0.083, 0.25, 0.5, 1, 2, 4, 8, 12, 24, 48, and 72 hours post-dose. Urine and feces were collected from all Group 2 animals periodically through 168 hours post-dose. […] Following blood collection, animals were euthanized by CO2 inhalation and carcasses frozen in a dry ice/hexane bath for processing by quantitative whole body autoradiography. Whole blood, plasma, urine, feces, cage rinse, and cage wash were analyzed for total radioactivity by liquid scintillation counting.
Plasma pools were made from Group 1 rats at the 0.083, 0.25, 0.5, and 1-hour collection time points.
Urine pools were prepared for Group 2 at 0 to 6 and 6 to 12 hours postdose. The largest component present was attributed to the parent 25HC3 S representing about 78% to 93% of the radioactivity. […]

NASH patients = conditions: between 50 mg and 200 mg oral dose levels; cited from earlier work
[6] = 50 mg QD, 4 weeks oral, patients with ≥10% reduction in MRI-PDFF, Day 28 vs baseline
[7] = 50 mg QD, 4 weeks oral, patients with ≥10% reduction in MRI-PDFF, Day 28 vs baseline, listed as 25HC3 S
[8] = 300 mg BID, 4 weeks oral, patients with ≥10% reduction in MRI-PDFF, Day 28 vs baseline
[9] = 300 mg BID, 4 weeks oral, patients with ≥10% reduction in MRI-PDFF, Day 28 vs baseline, listed as 25HC3 S
[10] = all on a statin except one outlier (n = 19)
[11] = all patients on a statin (n = 20)

For `C[C@H](CCCC(C)(C)O)[C@H]1CC[C@H]2[C@@H]3CC=C4C[C@@H](OS(=O)(=O)O)CC[C@]4(C)[C@H]3CC[C@]12C` [25HC3S, 5-cholesten-3,25-diol, 3-sulfate], the “Non-HDL-C, median change” value ([1]; 50 mg QD, 4 weeks oral, all patients, Day 28 vs baseline) was −8%, the “APRI score, median change” value [1, 6] was −27%*** and the “AST, median change” value [1, 6] was −24%**. The “FIB-4 score, median change” value [1, 6] was −19%**, the “GGT, median change” value [1, 6] was −13%*** and the “APRI score, median change” value [1, 7] was −27%. The “AST, median change” value [1, 7] was −24%, the “FIB-4 score, median change” value [1, 7] was −19% and the “GGT, median change” value [1, 7] was −13%. For the same compound, the “GGT, median change” value ([1]; 150 mg QD, 4 weeks oral, all patients, Day 28 vs baseline) was −1%, the “APRI score, median change” value [1, 8] was −36%*** and the “AST, median change” value [1, 8] was −39%***. For the same compound, the “FIB-4 score, median change” value [1, 8] was −21%***, the “APRI score, median change” value [1, 9] was −36% and the “AST, median change” value [1, 9] was −39%. The “FIB-4 score, median change” value [1, 9] was −21%, the “Mean Non-HDL to Baseline” value [1, 10] was −11% and the “Mean TG to Baseline” value [1, 10] was −10%. For the same compound, the “Median Non-HDL to Baseline” value [1, 10] was −10%, the “Median TG to Baseline” value [1, 10] was −9% and the “Mean Non-HDL to Baseline” value [1, 11] was −9%. For the same compound, the “Mean TG to Baseline” value [1, 11] was −2%, the “Median Non-HDL to Baseline” value [1, 11] was −9% and the “Median TG to Baseline” value [1, 11] was −6%. The “enzyme levels (e.g., ALT, AST, GGT)” value ([1]; high dose (300 mg BID)) was “improved enzyme levels”, the “patients who showed ≥10% liver fat reduction from baseline as measured by MRI-PDFF” value ([1]; in each dose group (50 mg, 150 mg, 600 mg daily), after 4-week dosing) was 43% and the “serum triglycerides, median reduction from baseline” value ([1]; patients with elevated baseline triglycerides (≥200 mg/dL; n=16) across all dose groups, day 28) was −24%. The “reduction in serum triglycerides” value ([1]; patients with elevated baseline triglycerides (≥200 mg/dL; n=16) across all dose groups, day 28 from baseline) was 24%, the tolerability ([2]; all three doses (50 mg, 150 mg, 600 mg daily)) was “well tolerated” and the “drug related serious adverse events” value ([2]; all three doses) was “no drug related serious adverse events observed”. The CL/F ([3]; 50 mg QD oral) was 150.6 L/h, the “dose dependence of PK parameters” value ([3]; 50 mg, 150 mg, 600 mg daily) was “dose dependent” and the CL/F ([3]; 150 mg QD oral) was 176.6 L/h. The CL/F ([3]; 300 mg BID oral) was 166.2 L/h, the “PK parameters after repeat dosing versus single dose” value ([3]; 4-week daily oral dosing) was “comparable to those after a single dose” and the “difference between healthy and NASH subjects in pharmacokinetics (Cmax and AUC)” value ([4]; 50 mg and 200 mg) was “no clear difference”. The “increase of AUC0-last, AUCinf and Cmax with increasing dose” value ([4]; 50 mg to 200 mg) was “less than proportional”, the “geometric mean AUC0-12 and AUC0-last, NASH versus healthy subjects” value ([4]; Cohort 1 (50 mg)) was “similar” and the “AUC0-inf, higher in NASH subjects than healthy” value ([4]; Cohort 2 (200 mg)) was “approximately 20%”. The “increase of geometric mean Cmax in NASH subjects over healthy subjects” value ([4]; Cohorts 1 and 2) was 18-24%, the “increase in both Cmax and AUC parameters for a four-fold increase in dose” value ([4]; NASH subjects, 50 mg to 200 mg) was “three-fold” and the “increase in mean Cmax for a four-fold increase in dose” value ([4]; healthy subjects, 50 mg to 200 mg) was “three-fold”. The “Mean % AUCexp” value ([4]; human, in vivo) was “low”, the “share of the exposure (AUC) to related radioactivity in plasma” value [5] was “approximately 54%” and the “dose-dependent changes of biological responses” value (NASH patients) was “no dose-dependent changes of biological responses”.
